Where a SMILES comes first, the peptide text is derived from it. [ ]: non-standard residue; d: D form. The star is where a group is joined. sY = N[C@@H](Cc1ccc(OS(=O)(=O)O)cc1)C(=O)O; Cbz = O=C(OCc1ccccc1)*; Boc = CC(C)(C)OC(=O)*
How the values were obtained:
gastrin = details: background, in vitro; cited from earlier work
[1] = biological target: T1, CCK receptor (brain, cerebral cortex) (Cavia porcellus, UniProt H0VZC5); experiment: 125I-CCK-33 receptor binding (brain) method; set-up: species or system guinea pig (male Hartley); details: 125I-CCK-33, guinea pig cerebral cortex, 25° C., 2 hours
T1 construct: The cerebral cortex was dissected and used as a receptor source; from tissue; host or cells: cerebral cortex of male Hartley guinea pigs, membrane homogenate
T1 sequence (H0VZC5 1-426): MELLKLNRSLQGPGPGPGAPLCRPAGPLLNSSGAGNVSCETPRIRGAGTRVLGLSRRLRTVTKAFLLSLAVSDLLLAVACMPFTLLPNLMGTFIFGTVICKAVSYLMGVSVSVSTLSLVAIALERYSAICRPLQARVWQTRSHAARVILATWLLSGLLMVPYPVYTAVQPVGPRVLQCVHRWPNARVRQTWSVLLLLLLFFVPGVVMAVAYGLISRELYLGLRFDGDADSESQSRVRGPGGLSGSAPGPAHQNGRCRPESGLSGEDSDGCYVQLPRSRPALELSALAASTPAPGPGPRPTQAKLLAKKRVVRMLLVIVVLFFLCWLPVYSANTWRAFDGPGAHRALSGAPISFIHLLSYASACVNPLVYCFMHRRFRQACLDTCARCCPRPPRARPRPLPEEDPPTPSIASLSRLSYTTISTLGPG
Source text: (§1) Screening of the novel compounds according to the present invention to determine biological activity and obtain an IC50 value for them, in order to identify significant CCK-antagonism, may be accomplished using an ^125 I-CCK receptor binding assay and in vitro isolated tissue preparations. To identify significant gastrin antagonism, ^125 I-gastrin and ^3 H-pentagastrin binding assays are used. These tests involve the following:
CCK receptor binding (brain) method
CCK-33 was radiolabeled and the binding was performed according to the description for the pancreas method, with modifications according to Saito et al., J. Neurochem., 37, 483-490, 1981.
Male Hartley guinea pigs (300-500 g) were sacrificed by decapitation, and the brains were removed and placed in ice-cold 50 mM Tris HCl plus 7.58 g/l Trizma-7.4 [pH 7.4 at 25° C.]. The cerebral cortex was dissected and used as a receptor source and each gram of fresh guinea pig brain tissue was homogenized in 10 ml of Tris/Trizma buffer with a Brinkmann polytron PT-10. The homogenates were centrifuged at 42,000 g for 15 minutes, then the resulting pellets were resuspended in 200 volumes of binding assay buffer (10 mM N-2-hydroxy-ethyl-piperazine-N'-2-ethane-sulfonic acid (HEPES), pH 7.7 at 25° C., 5 mM MgCl2, 1 mM ethyl glycol-bis-(β-amino-ethyl-ether-N,N'-tetraacetic acid (EGTA), 0.4% BSA (bovine serum albumin) and 0.25 mg/ml bacitracin, pH 6.5).
The remainder of the binding assay method was as described for the pancreas method, except that the reaction mixtures were incubated at 25° C. for 2 hours before centrifugation.

[2] = biological target: T2, Gastrin receptor (gastric glands) (Cavia porcellus, UniProt H0VZC5); experiment: 125I-gastrin receptor binding in guinea pig gastric glands; set-up: species or system guinea pig (male Hartley); details: 25° C., 30 minutes
T2 construct: Gastric mucosa from male Hartley guinea pigs (300-500 g body weight); from tissue; host or cells: isolated gastric mucosal glands of male Hartley guinea pigs
T2 sequence (H0VZC5 1-426): T1 sequence (H0VZC5 1-426)
Source text: as §1
Gastrin Receptor Binding in Guinea Pig Gastric Glands
Guinea pig gastric mucosal glands were prepared by the procedure of Berglingh and Obrink, Acta Physiol. Scand. 96: 150 (1976), with a slight modification according to Praissman et al. C. J. Receptor Res. 3: (1983). Gastric mucosa from male Hartley guinea pigs (300-500 g body weight) were washed thoroughly and minced with fine scissors in standard buffer consisting of the following: 130 mM NaCl, 12 mM NaHCO3, 3 mM NaH2 PO4, 3 mM Na2 HPO4, 3 mM K2 HPO4, 2 mM MgSO4, 1 mM CaCl2, 5 mM glucose and 4 mM L-glutamine, 25 mM HEPES at pH 7.4. […]
The washed guinea pig gastric glands were resuspended in 25 ml of standard buffer containing 0.25 mg/ml of bacitracin. […] The radioactivity of the filters was measured using a Beckman gamma 5500 for ^125 I-gastrin or liquid scintillation counting for ^3 H-pentagastrin.

CCK receptor = details: background, structure-function studies; cited from earlier work
CCK receptor (pancreas) = biological target: T3, CCK receptor (pancreas) (Rattus norvegicus, UniProt P30551); experiment: 125I-CCK-33 receptor binding (pancreas) method; set-up: species or system rat (male Sprague-Dawley); details: protease inhibitors added to binding assay buffer
T3 construct: The whole pancreas of a male Sprague-Dawley rat (200-350 g); from tissue; host or cells: whole pancreas of male Sprague-Dawley rat, membrane homogenate
T3 sequence (P30551 1-444): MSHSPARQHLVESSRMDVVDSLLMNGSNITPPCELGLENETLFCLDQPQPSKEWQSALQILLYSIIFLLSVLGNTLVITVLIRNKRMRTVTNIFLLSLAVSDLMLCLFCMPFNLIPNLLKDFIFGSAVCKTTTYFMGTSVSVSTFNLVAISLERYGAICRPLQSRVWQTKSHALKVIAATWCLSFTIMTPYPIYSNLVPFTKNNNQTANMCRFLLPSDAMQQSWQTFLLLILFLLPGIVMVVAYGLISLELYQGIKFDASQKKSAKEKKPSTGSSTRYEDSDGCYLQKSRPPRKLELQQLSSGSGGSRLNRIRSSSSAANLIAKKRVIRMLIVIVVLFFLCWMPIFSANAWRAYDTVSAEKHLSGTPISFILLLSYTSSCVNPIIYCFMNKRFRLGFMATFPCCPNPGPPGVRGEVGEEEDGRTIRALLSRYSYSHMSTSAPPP
Source text: Screening of the novel compounds according to the present invention to determine biological activity and obtain an IC50 value for them, in order to identify significant CCK-antagonism, may be accomplished using an ^125 I-CCK receptor binding assay and in vitro isolated tissue preparations. […] These tests involve the following:
CCK receptor binding (pancreas) method
CCK-33 was radiolabeled with ^125 I-Bolton Hunter reagent (2000 Ci/mmole), as described by Sankara et al. (J. Biol. Chem., 254, 9349-9351, 1979).
The whole pancreas of a male Sprague-Dawley rat (200-350 g), which had been sacrificed by decapitation, was dissected free of fat tissue and homogenized in 20 volumes of ice-cold 50 mM Tris HCl (pH 7.7 at 25° C.) with a Brinkmann Polytron PT-10. The homogenates were centrifuged at 48,000 g for 10 minutes, then the resulting pellets were resuspended in Tris Buffer, centrifuged as above, and resuspended in 200 volumes of binding assay buffer (50 mM Tris HCl, pH 7.7 at 25° C., 5 mM dithiothreitol, 0.1 mM bacitracin, 1.2 mM phenylmethane sulfonyl fluoride and 0.5 mM o-phenanthroline).
The supernatant was aspirated and discarded, and the pellets were counted with a Beckman Gamma 5000.

SMILES	IC50 [1] [µM]	CCK antagonism (in words) (CCK receptor)	further results
CCCN(CCC)C(=O)C(CCC(=O)O)NC(=O)c1ccccc1 (racemic) [Compound 1, reference compound]	–	–	gastrin antagonism (in words) (gastrin): very weak in vitro antagonists
CCCCCN(CCCCC)C(=O)C(CCC(=O)O)NC(=O)c1ccc(Cl)c(Cl)c1 (racemic) [Compound 2, reference compound]	2.2	–	–
CCCCCN(CCCCC)C(=O)C(CCC(=O)OCc1ccccc1)NC(=O)Nc1ccc(Cl)cc1 (racemic) [Compound 8, (RS)-4-[(4-chlorophenylaminocarbonyl)amino]-5-(dipentylamino)-5-oxo-1-(phenylmethyloxy)pentanoic acid]	5.3	–	IC50 [2]: 22 µM
CSCC[C@H](NC(=O)OC(C)(C)C)C(=O)N[C@@H](CC(=O)O)C(=O)N[C@@H](Cc1ccccc1)C(N)=O [Boc-Met-Asp-Phe-NH2] (Boc-Met-Asp-Phe-NH2)	–	can function as CCK antagonists	–
CSCC[C@H](NC(=O)[C@H](Cc1ccc(OS(=O)(=O)O)cc1)NC(=O)OCc1ccccc1)C(=O)NCC(=O)N[C@@H](Cc1c[nH]c2ccccc12)C(=O)N[C@@H](CCSC)C(=O)N[C@@H](CC(=O)O)C(N)=O [Cbz-Tyr(SO3 H)-Met-Gly-Trp-Met-Asp-NH2] (Cbz-[sY]MGWMD-NH2)	–	partial agonist	–
O=C(O)CC[C@@H](NC(=O)c1cc2ccccc2[nH]1)C(=O)N(C1CCCCC1)C1CCCCC1 [Compound 10, (R)-5-(dicyclohexylamino)-4[(1H-indol-2-ylcarbonyl)amino]-5-oxo-pentanoic acid]	3.4	–	IC50 [2]: 4.1 µM
CSCC[C@H](N)C(=O)N[C@@H](CC(=O)O)C(=O)N[C@@H](Cc1ccccc1)C(N)=O [Met-Asp-Phe-NH2] (H-Met-Asp-Phe-NH2)	–	can function as CCK antagonists	–
CCCC(=O)Nc1nc2c(ncn2[C@@H]2O[C@@H]3COP(=O)(O)O[C@H]3[C@H]2OC(=O)CCC)c(=O)[nH]1 [dibutyryl cyclic GMP]	–	most potent	–
c1cnc2c(c1)ccc1cccnc12 [o-phenanthroline]	–	–	effect on the 125I-CCK receptor binding assay (in words) (CCK receptor (pancreas)): no effect
O=S(=O)(F)Cc1ccccc1 [phenylmethane sulfonyl fluoride]	–	–	effect on the 125I-CCK receptor binding assay (in words) (CCK receptor (pancreas)): no effect

From patent US4880938A, “Amino acid analogs” (priority 1986, dated 1989)
